# Measured values as given in patent publication US20230365537A1, “POLO LIKE KINASE 4 INHIBITORS” (ORIC Pharmaceuticals, Inc., priority 2021, published 2023).
# Assays:
# human recombinant PLK4 = human recombinant PLK4 (Homo sapiens (Human), UniProt O00444); experiment: PLK4 Biochemical Assay (ADP-Glo); details: 0.5 nM PLK4, 8.0 µM ATP, 4.7 µM MBP, 6 hours at RT
# Protocol: (§1) Activity of human recombinant PLK4 (ThermoFisher, cat #PV6396) was measured by quantification of adenosine diphosphate (ADP) using the ADP-Glo Kinase Assay Kit (Promega, cat #V9102). […] 5 µL of 1.0 nM PLK4 protein in assay buffer (50 mM HEPES, pH 7.5, 0.01% Brij-35, 0.01% BSA, 10 mM MgCl2, 1 mM EGTA, 1 mM DTT) was added to the plates. Test compounds and PLK4 were incubated for 15 minutes at room temperature (RT). […] Reactions were stopped and the remaining ATP depleted by adding 10 µL of ADP-Glo reagent (Promega, cat#V912B) and incubating for 40 minutes at RT. The simultaneous conversion of the remaining ADP to ATP and measurement of the newly synthesized ATP was achieved by addition of 20 µL Kinase Detection reagent (Promega, cat #V914B), incubation for 30 min at RT, and luminescence detection using the EnVision plate reader (PerkinElmer). […] The IC50 values reported in Table 2 were determined using four parameter non-linear regression curve fit.
# [1] = biological target: human recombinant Aurora A (Homo sapiens (Human), UniProt O14965); experiment: Aurora A Kinase Biochemical Assay (ADP-Glo); details: ratio of Aurora A IC50 to PLK4 IC50 (selectivity)
# Protocol: as §1, with “Aurora A” for “PLK4”, “#PR5935A)” for “#PV6396)”, “5.0” for “1.0”, “Aurora A” for “PLK4 protein”, “10uL” for “10 µL”
# [2] = biological target: human recombinant Aurora B (Homo sapiens (Human), UniProt Q96GD4); experiment: Aurora B Kinase Biochemical Assay (ADP-Glo); details: ratio of Aurora B IC50 to PLK4 IC50 (selectivity)
# Protocol: as §1, with “Aurora B” for “PLK4”, “#PR9210B)” for “#PV6396)”, “20” for “1.0”, “Aurora B” for “PLK4 protein”, “10uL” for “10 µL”
# Sequence of human recombinant PLK4 (O00444 whole entry): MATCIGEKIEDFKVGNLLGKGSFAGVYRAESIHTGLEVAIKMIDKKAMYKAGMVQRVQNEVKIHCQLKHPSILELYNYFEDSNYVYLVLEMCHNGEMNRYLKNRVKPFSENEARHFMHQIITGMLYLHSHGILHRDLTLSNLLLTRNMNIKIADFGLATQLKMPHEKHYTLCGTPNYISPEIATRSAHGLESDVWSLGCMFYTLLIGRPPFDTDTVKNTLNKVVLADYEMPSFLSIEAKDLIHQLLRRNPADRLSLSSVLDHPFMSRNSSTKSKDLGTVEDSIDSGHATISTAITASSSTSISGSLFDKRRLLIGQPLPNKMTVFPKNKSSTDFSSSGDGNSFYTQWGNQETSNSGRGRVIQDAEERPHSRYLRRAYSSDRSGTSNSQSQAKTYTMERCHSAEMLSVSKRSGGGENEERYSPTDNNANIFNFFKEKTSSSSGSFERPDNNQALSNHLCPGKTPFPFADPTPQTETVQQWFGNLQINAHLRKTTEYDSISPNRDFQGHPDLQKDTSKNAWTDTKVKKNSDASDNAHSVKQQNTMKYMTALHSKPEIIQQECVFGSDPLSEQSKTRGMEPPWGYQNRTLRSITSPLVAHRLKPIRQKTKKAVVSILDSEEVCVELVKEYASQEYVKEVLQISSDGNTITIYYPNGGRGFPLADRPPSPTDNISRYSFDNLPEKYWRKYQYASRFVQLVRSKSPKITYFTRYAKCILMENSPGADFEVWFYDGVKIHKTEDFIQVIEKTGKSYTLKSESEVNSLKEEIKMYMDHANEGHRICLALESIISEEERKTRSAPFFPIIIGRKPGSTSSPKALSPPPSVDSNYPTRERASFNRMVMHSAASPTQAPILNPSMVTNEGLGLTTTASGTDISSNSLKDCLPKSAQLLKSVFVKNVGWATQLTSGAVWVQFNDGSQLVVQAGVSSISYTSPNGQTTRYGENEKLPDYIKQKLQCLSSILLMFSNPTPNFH
# Sequence of human recombinant Aurora A (O14965 whole entry): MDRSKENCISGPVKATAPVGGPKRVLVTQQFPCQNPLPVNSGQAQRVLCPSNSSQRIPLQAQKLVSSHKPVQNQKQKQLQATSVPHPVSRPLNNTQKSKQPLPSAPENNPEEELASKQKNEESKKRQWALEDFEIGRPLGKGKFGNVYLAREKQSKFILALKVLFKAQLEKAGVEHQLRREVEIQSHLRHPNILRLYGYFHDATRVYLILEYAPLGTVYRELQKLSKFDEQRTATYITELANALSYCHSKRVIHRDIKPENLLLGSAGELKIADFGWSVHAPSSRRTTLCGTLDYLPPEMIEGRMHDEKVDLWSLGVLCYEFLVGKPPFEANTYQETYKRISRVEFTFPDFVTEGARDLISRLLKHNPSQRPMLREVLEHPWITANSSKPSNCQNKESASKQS
# Sequence of human recombinant Aurora B (Q96GD4 whole entry): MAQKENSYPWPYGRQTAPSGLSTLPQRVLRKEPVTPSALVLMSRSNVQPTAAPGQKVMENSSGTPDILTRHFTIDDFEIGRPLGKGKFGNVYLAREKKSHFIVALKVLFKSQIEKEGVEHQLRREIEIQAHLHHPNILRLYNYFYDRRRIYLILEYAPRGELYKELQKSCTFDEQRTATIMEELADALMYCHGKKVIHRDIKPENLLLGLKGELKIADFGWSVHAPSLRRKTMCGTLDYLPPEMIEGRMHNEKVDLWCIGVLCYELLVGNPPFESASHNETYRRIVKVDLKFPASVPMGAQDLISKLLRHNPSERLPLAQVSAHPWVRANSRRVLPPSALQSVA
Compound,IC50 (human recombinant PLK4) [nM],[Aurora A IC50 (nM)]/[PLK4 IC50 (nM)] [1],[Aurora B IC50 (nM)]/[PLK4 IC50 (nM)] [2]
"COc1ccc2c(c1)[C@]1(C[C@H]1c1ccc3c(Nc4nccnc4OC)n[nH]c3c1)C(=O)N2 [Example 13, (1R,2S)-5′-methoxy-2-{3-[(3-methoxypyrazin-2-yl)amino)-1H-indazol-6-yl}spiro[cyclopropane-1,3′-indol]-2′(1′H)-one]",2.99,667.5585,10.3
"COc1ccc2c(c1)[C@]1(C[C@H]1c1ccc3c(Nc4cc(OC)ncn4)n[nH]c3c1)C(=O)N2 [Example 14, (1R,2S)-5′-methoxy-2-{3-[(6-methoxypyrimidin-4-yl)amino]-1H-indazol-6-yl}spiro[cyclopropane-1,3′-indol]-2′(1′H)-one]",36,74.16,3.866
"COc1ccc2c(c1)[C@]1(C[C@H]1c1ccc3c(Nc4cccc5c4OCC5)n[nH]c3c1)C(=O)N2 [Example 16, (1R,2S)-2-{3-[(2,3-dihydro-1-benzofuran-7-yl)amino]-1H-indazol-6-yl}-5′-methoxyspiro[cyclopropane-1,3′-indol]-2′(1′H)-one]",2.18,605.6855,11.76
"COc1ccc2c(c1)[C@]1(C[C@H]1c1ccc3c(Nc4ncccc4OC)n[nH]c3c1)C(=O)N2 [Example 17, (1R,2S)-5′-methoxy-2-{3-[(3-methoxypyridin-2-yl)amino]-1H-indazol-6-yl}spiro[cyclopropane-1,3′-indol]-2′(1′H)-one]",4.3,1145.911,34.9
"COc1ccc2c(c1)[C@]1(C[C@H]1c1ccc3c(Nc4cn(C)nc4OC)n[nH]c3c1)C(=O)N2 [Example 25, (1R,2S)-5′-methoxy-2-{3-[(3-methoxy-1-methyl-1H-pyrazol-4-yl)amino]-1H-indazol-6-yl}spiro[cyclopropane-13′-indol]-2′(1′H)-one]",34.2,249.6489,28.1
"COc1ccc2c(c1)[C@]1(C[C@H]1c1ccc3c(Nc4cnn5c4OCC5)n[nH]c3c1)C(=O)N2 [Example 30, (1R,2S)-2-{3-[(2,3-dihydropyrazolo[5,1-b][1,3]oxazol-7-yl)amino]-1H-indazol-6-yl}-5′-methoxyspiro[cyclopropane-1,3′-indol]-2′(1′H)-one]",31.2,36.2,6.188
"COc1ccc2c(c1)[C@]1(C[C@H]1c1ccc3c(Nc4cccc5c4OCC5=O)n[nH]c3c1)C(=O)N2 [Example 31, (1R,2S)-5′-methoxy-2-{3-[(3-oxo-2,3-dihydro-1-benzofuran-7-yl)amino]-1H-indazol-6-yl}spiro[cyclopropane-1,3′-indol]-2′(1′H)-one]",3.02,207.053,22.17
"COc1ccc2c(c1)[C@]1(C[C@H]1c1ccc3c(Nc4nccc5c4OCC5)n[nH]c3c1)C(=O)N2 [Example 32, (1R,2S)-2-{3-[(2,3-dihydrofuro[2,3-c]pyridin-7-yl)amino]-1H-indazol-6-yl}-5′-methoxyspiro[cyclopropane-1,3′-indol]-2′(1′H)-one]",3.94,911.8842,17.5546
"COc1ccc2c(c1)[C@]1(C[C@H]1c1ccc3c(Nc4nccc5c4OC[C@@H]5CO)n[nH]c3c1)C(=O)N2 [Example 33, (1R,2S)-2-(3-{[(3S)-3-(hydroxymethyl)-2,3-dihydrofuro[2,3-c]pyridin-7-yl]amino}-1H-indazol-6-yl)-5′-methoxyspiro[cyclopropane-1,3′-indol]-2′(1′H)-one]",5.91,355.9465,8.474
"COc1ccc2c(c1)[C@]1(C[C@H]1c1ccc3c(Nc4cc(N5CC(OC)C5)ncn4)n[nH]c3c1)C(=O)N2 [Example 35, (1R,2S)-5′-methoxy-2-(3-{[6-(3-methoxyazetidin-1-yl)pyrimidin-4-yl]amino}-1H-indazol-6-yl)spiro[cyclopropane-1,3′-indol]-2′(1′H)-one]",7.53,67.3,2.162
"COc1ccc2c(c1)[C@]1(C[C@H]1c1ccc3c(Nc4cc(N5CC(O)C5)ncn4)n[nH]c3c1)C(=O)N2 [Example 36, (1R,2S)-2-(3-{[6-(3-hydroxyazetidin-1-yl)pyrimidin-4-yl]amino}-1H-indazol-6-yl)-5′-methoxyspiro[cyclopropane-1,3′-indol]-2′(1′H)-one]",6.17,218.2083,5.701
"COc1ccc2c(c1)[C@]1(C[C@H]1c1ccc3c(Nc4ncnc(N5C6CCC5COC6)c4OC)n[nH]c3c1)C(=O)N2 [Example 37, (1R,2S)-2-(3-((6-(3-oxa-8-azabicydo[3.2.1]octan-8-yl)-5-methoxypyrimidin-4-yl)amino)-1H-indazol-6-yl)-5′-methoxyspiro[cydopropane-1,3′-indolin]-2′-one]",12.5,1799.358,49.51
"COc1ccc2c(c1)[C@]1(C[C@H]1c1ccc3c(Nc4cc(OCCO)ncn4)n[nH]c3c1)C(=O)N2 [Example 38, (1R,2S)-2-(3-{[6-(2-hydroxyethoxy)pyrimidin-4-yl]amino}-1H-indazol-6-yl)-5′-methoxyspiro[cyclopropane-1,3′-indol]-2′(1′H)-one]",14.1,43.69,2.761
"COc1ccc2c(c1)[C@]1(C[C@H]1c1ccc3c(Nc4cc(N5CCS(=O)(=O)CC5)ncn4)n[nH]c3c1)C(=O)N2 [Example 39, (1R,2S)-2-(3-((6-(1,1-dioxidothiomorpholino)pyrimidin-4-yl)amino)-1H-indazol-6-yl)-5′-methoxyspiro[cyclopropane-1,3′-indolin]-2′-one]",26.4,30.38,1.018
"COc1ccc2c(c1)[C@]1(C[C@H]1c1ccc3c(Nc4cc(N5CCCOCC5)ncn4)n[nH]c3c1)C(=O)N2 [Example 40, (1R,2S)-5′-methoxy-2-(3-{[6-(1,4-oxazepan-4-yl)pyrimidin-4-yl]amino}-1H-indazol-6-yl)spiro[cyclopropane-1,3′-indol]-2′(1′H)-one]",15.2,67.06,2.783
"COc1ccc2c(c1)[C@]1(C[C@H]1c1ccc3c(Nc4ncnc(N5CCC5)c4OC)n[nH]c3c1)C(=O)N2 [Example 42, (1R,2S)-2-(3-{[6-(azetidin-1-yl)-5-methoxypyrimidin-4-yl]amino}-1H-indazol-6-yl)-5′-methoxyspiro[cyclopropane-1,3′-indol]-2′(1′H)-one]",36.2,1053.808,42.3
